Laboratory results published in ChEMBL document CHEMBL1201862, “PubChem BioAssay data set” (2004).
Calls of active or inactive are those of the source.

What was measured:
HT-1080 = assay: HT1080 cell viability loss – fluorescence readout (AID 620); assay type: functional, cell-based; conditions: Homo sapiens
[1] = biological target: T1, Microphthalmia-associated transcription factor (Homo sapiens, UniProt O75030); assay: reducers of TRPM1 reporter luminescence, concentration series – cell-based, SK-MEL-5, cherry-picked, set 3, MITF inhibitor project, dose response (AID 493073); assay type: functional;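 note: SK-MEL-5 melanoma cells with luciferase driven by the MITF target TRPM1 promoter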
T1 sequence (O75030 whole entry): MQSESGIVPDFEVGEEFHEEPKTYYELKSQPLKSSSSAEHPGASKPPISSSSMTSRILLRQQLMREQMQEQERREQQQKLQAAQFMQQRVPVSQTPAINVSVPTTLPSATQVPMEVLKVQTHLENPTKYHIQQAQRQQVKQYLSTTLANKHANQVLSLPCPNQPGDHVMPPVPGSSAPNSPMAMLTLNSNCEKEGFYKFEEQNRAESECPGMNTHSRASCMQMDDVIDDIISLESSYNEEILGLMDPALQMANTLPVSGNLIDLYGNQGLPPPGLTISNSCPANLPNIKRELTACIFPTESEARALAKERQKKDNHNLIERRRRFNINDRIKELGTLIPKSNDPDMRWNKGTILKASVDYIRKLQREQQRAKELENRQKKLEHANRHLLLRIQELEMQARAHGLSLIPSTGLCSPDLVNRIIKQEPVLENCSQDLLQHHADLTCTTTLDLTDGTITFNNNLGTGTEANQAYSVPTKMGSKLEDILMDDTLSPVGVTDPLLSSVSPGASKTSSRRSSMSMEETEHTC

[2] = general cell-killing toxicity readout – plate reader, dry powder samples, cytotoxicity control for PAX8 inhibitor project, dose response (AID 743021); assay type: functional, cell-based
[3] = biological target: Luciferin 4-monooxygenase (Photinus pyralis, UniProt P08659); assay: Counter Screen for Luciferase-based Assay Positives. [Related pubchem assays: 620, 618, 411 ]
Paired box protein Pax-8 = Paired box protein Pax-8 (Homo sapiens, UniProt Q06710); assay: PAX8 transcriptional activity inhibition in RMG-I – RMG-I cells, luciferase, cherry-pick, dose response (AID 687027); assay type: functional, cell-based;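 note: luciferase reporter driven by Pax8 target thyroperoxidase promoter measured by SteadyGlo luminescence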
[4] = THP-1 cell cytotoxicity, dose response, cytotoxicity control for non-replicating M. tuberculosis project (AID 489025); assay type: functional
Cytochrome P450 2C9 = Cytochrome P450 2C9 (Homo sapiens, UniProt P11712)
cells = assay type: functional
[5] = HepG2 cell cytotoxicity, dose response, cytotoxicity control for non-replicating M. tuberculosis project (AID 489018); assay type: functional; conditions: Mycobacterium tuberculosis
[6] = viability of PTEN-deleted HCT116 cells – cell-based, HCT116 PTEN knockout, dose response (AID 1047); assay type: functional;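 note: HCT116 colon tumor cells with PTEN knocked out; cells exposed to compound for 60 hours before readout; potency for loss of cell viability measured by luminescence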
[7] = viability of HCT116 lacking mutant beta-catenin – cell-based, human colon tumor, dose response (AID 1045); assay type: functional;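 note: HCT116 colon tumor cells with beta catenin knocked out; cells exposed to compound for 60 hours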
[8] = MIN6 cell viability loss – mouse insulinoma, cytotoxicity control, dose response (AID 2122); assay type: functional;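 note: confirmatory high-throughput counterscreen run to flag cytotoxic compounds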
[9] = Vero E6 cell cytotoxicity, dose response, cytotoxicity control for non-replicating M. tuberculosis project, secondary assay (AID 492998); assay type: functional, VeroE6; conditions: Vero C1008
Vero = assay: cells; assay type: functional; conditions: Chlorocebus sabaeus
[10] = decrease of insulin promoter-GFP reporter – imaging, high-content screening, mouse beta cells (AID 1628); assay type: functional; conditions: MIN6
[11] = biological target: T2, Lysine-specific demethylase 4C (Homo sapiens, UniProt Q9H3R0); assay: inhibition of JMJD2C H3K9me3 demethylation – biochemical, DELFIA europium, cherry-picked samples, dose response (AID 488835); assay type: functional
T2 sequence (Q9H3R0 whole entry): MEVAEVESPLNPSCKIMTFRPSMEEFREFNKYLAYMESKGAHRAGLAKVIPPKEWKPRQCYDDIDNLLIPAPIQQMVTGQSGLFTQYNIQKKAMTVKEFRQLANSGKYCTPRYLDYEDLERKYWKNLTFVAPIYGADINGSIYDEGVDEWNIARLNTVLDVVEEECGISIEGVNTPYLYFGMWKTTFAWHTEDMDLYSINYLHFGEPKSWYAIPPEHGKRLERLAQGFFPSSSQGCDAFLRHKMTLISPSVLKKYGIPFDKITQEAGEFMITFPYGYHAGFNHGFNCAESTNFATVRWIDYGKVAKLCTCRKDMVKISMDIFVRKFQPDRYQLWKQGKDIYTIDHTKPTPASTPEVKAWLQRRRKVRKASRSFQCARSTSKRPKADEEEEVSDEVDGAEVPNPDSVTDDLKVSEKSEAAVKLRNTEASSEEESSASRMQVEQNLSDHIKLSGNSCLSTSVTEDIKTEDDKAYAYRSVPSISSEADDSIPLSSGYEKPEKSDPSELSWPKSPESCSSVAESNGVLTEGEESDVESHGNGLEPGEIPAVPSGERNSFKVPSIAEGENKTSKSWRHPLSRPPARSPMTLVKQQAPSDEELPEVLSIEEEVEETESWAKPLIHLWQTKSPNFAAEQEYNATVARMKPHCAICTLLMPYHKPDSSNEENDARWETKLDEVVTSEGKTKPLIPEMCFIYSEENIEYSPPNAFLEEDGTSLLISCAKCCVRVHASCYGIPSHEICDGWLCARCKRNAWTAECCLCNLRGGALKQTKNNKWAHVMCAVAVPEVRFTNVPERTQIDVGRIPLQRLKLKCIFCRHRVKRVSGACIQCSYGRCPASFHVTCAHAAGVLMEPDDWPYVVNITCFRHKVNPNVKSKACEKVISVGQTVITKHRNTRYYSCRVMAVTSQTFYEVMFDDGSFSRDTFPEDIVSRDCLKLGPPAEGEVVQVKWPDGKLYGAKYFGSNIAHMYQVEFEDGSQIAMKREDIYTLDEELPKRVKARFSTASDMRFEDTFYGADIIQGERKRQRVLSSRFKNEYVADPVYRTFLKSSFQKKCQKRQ

[12] = NIH3T3 cell viability loss – ATP luminescence, mouse fibroblasts, counter-screen, dose response (AID 2010); assay type: functional, cell-based;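 note: cells exposed to compound for about 90 hours before reading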
[13] = HPDE-C7 pancreatic duct cell viability loss – fluorescence, HTS (AID 430); assay type: functional, cell-based; conditions: Homo sapiens
[14] = viability loss of HPDE-C7K cells – cell-based, fluorescence, HTS, primary screen (AID 431); assay type: functional; conditions: Homo sapiens
[15] = biological target: T3, Replicative DNA helicase DnaB (Mycobacterium tuberculosis, UniProt P9WMR3); assay: DnaB intein splicing inhibitors, dose response, biochemical, cell-free fluorescence (AID 449749); assay type: functional
T3 sequence (P9WMR3 whole entry): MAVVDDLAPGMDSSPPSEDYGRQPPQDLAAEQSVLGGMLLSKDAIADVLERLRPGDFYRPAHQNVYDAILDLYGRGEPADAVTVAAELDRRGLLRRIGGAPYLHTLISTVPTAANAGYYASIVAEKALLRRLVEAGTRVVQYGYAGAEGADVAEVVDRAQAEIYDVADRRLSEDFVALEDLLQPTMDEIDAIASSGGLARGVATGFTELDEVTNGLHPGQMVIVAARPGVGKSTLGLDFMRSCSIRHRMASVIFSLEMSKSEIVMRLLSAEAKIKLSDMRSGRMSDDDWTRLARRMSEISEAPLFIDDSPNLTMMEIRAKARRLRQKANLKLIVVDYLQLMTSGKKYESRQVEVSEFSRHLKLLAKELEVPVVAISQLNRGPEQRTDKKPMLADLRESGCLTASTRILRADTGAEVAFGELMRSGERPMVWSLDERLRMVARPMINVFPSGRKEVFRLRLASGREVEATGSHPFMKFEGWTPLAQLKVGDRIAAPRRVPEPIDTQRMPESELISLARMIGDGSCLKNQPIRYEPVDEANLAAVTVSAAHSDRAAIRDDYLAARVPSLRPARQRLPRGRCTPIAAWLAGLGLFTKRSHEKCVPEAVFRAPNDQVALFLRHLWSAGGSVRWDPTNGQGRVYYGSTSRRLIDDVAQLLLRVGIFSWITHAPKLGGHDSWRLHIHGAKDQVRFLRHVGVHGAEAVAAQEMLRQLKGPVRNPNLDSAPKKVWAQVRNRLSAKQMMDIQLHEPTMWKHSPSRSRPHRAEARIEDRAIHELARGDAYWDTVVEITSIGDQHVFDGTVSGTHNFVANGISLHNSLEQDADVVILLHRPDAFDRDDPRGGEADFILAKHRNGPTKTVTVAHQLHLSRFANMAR

[16] = Trypanosoma cruzi growth suppression in host cells – NIH3T3 host cells, beta-gal luminescence, confirmation (AID 2044); assay type: functional, cell-based;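 note: intracellular parasites grown in NIH/3T3 mouse fibroblasts as host cells; luminescent beta-galactosidase reporter signal from transgenic T. cruzi replicating inside host cells; inhibitors lower the luminescence signal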
Protein RecA = biological target: T4, Protein RecA (Mycobacterium tuberculosis, UniProt P9WHJ3); assay: Fluorescence Cell-Free Homogeneous Dose Retest to Identify Inhibitors of RecA-Intein Splicing Activity. [Related pubchem assays (depositor defined):AID2097, AID2223, AID489010, AID492950]; assay type: functional
T4 sequence (P9WHJ3 whole entry): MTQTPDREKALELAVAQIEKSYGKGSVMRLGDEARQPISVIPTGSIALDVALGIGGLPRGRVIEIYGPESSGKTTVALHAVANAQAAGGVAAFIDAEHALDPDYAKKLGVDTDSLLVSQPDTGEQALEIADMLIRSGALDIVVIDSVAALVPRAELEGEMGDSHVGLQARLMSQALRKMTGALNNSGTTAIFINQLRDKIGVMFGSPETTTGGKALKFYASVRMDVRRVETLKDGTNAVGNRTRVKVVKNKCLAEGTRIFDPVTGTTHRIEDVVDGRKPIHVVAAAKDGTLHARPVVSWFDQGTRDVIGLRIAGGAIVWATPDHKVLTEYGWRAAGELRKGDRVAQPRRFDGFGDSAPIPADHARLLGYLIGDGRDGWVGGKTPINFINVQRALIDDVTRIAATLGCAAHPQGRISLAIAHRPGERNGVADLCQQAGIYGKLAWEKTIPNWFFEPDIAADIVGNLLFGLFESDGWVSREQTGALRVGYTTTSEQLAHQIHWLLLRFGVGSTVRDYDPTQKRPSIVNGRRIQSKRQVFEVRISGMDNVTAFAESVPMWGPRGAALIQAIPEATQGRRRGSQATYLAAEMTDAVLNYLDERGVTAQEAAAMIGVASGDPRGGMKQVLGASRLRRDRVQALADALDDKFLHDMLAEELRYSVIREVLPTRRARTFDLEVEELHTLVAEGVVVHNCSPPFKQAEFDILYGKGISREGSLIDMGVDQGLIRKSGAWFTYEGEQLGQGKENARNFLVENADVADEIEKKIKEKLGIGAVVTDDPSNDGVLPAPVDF

Genome polyprotein = Genome polyprotein (dengue virus type 2, UniProt P29990); assay: flavivirus cap methylation enzyme inhibition – biochemical, confirmation dose response, primary screen (AID 588689); assay type: functional
[17] = biological target: Intestinal-type alkaline phosphatase (Homo sapiens, UniProt P09923); assay: inhibition of human intestinal alkaline phosphatase – biochemical, dose response (AID 488876); assay type: functional
[18] = biological target: Intestinal-type alkaline phosphatase (Mus musculus, UniProt P24822); assay: PubChem AID 488785; assay type: functional
[19] = biological target: T5, Alkaline phosphatase, tissue-nonspecific isozyme (Homo sapiens, UniProt P05186); assay: TNAP enzyme inhibition by screening hits, dose response, selectivity assay for mouse IAP inhibitor project, biochemical, human TNAP, uHTS hits (AID 488906); assay type: functional
T5 sequence (P05186 whole entry): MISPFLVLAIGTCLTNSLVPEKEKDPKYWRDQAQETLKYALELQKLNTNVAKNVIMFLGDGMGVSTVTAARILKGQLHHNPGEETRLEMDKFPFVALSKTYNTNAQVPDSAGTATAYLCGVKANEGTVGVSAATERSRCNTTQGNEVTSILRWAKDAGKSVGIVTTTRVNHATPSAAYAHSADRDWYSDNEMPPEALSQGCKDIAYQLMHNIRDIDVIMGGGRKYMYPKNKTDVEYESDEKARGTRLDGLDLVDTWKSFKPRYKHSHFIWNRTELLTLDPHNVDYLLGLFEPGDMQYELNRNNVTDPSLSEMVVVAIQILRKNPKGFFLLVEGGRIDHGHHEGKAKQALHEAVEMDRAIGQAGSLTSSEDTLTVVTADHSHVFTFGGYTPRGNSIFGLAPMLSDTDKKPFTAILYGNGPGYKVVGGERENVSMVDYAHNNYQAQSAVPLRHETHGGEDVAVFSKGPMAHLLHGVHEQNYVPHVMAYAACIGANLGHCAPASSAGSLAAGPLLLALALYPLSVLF

Sequence of Paired box protein Pax-8 (Q06710 whole entry): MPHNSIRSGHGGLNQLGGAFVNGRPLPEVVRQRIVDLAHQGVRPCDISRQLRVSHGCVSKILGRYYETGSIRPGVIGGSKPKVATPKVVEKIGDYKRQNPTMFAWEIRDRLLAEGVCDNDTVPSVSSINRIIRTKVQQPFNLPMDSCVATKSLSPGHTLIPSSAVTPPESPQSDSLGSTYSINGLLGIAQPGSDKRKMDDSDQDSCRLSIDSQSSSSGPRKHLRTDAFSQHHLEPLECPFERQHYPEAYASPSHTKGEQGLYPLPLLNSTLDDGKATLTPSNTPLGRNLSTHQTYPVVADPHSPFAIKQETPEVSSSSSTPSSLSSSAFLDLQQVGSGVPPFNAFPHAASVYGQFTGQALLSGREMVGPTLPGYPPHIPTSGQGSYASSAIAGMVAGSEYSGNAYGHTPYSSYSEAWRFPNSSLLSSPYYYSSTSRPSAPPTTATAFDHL
Sequence of Genome polyprotein (P29990 2492-3391 limits assumed): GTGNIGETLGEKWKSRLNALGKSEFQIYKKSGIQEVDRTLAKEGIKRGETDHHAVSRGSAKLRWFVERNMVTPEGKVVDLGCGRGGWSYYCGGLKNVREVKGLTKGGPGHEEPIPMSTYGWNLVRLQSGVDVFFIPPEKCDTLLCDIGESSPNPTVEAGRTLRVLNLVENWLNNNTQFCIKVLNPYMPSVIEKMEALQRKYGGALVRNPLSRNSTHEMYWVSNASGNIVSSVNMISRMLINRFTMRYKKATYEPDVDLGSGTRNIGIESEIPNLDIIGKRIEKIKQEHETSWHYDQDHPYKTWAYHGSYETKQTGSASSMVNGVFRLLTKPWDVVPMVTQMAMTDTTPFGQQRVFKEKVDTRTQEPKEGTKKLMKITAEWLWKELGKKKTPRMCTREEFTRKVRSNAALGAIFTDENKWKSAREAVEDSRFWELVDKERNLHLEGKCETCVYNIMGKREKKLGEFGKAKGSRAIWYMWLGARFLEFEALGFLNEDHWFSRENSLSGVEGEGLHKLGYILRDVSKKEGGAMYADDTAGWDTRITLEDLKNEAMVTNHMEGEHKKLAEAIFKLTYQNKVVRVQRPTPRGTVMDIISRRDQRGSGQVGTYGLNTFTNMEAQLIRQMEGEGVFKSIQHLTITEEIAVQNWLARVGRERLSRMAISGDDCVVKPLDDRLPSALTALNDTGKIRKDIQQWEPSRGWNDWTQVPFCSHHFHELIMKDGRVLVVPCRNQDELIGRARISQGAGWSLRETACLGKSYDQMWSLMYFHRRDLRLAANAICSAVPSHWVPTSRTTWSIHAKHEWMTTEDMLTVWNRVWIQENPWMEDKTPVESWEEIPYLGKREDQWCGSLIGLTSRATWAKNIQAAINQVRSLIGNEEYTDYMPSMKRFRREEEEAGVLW
Sequence of Intestinal-type alkaline phosphatase (Mus musculus, UniProt P24822) (P24822 whole entry): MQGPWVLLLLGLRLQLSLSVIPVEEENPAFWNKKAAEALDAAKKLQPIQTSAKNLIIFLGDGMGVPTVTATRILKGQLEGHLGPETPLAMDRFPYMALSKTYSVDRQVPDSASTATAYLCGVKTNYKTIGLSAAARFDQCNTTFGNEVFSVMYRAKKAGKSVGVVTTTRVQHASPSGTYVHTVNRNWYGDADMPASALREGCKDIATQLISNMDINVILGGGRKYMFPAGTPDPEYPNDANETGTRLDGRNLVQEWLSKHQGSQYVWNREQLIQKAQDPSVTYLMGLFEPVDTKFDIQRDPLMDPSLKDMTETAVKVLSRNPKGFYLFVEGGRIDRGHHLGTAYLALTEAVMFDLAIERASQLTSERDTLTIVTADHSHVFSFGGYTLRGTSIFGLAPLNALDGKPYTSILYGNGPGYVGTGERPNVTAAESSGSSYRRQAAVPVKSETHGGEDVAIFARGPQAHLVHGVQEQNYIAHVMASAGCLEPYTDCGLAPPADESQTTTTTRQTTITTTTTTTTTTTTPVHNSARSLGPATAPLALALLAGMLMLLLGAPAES
Sequence of Cytochrome P450 2C9 (P11712 whole entry): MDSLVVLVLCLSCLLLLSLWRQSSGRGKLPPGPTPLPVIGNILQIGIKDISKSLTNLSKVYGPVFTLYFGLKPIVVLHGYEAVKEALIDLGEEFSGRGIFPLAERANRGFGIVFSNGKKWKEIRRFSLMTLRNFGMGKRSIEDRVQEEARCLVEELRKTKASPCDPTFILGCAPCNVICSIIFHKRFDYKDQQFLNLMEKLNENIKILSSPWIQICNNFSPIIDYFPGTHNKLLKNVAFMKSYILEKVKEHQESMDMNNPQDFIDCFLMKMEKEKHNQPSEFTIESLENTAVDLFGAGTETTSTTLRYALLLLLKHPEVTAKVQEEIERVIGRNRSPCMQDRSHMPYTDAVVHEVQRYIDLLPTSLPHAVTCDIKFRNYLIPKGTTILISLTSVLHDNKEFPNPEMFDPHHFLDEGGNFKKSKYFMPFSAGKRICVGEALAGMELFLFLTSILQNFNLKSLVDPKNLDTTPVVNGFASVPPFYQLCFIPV
Sequence of Luciferin 4-monooxygenase (P08659 whole entry): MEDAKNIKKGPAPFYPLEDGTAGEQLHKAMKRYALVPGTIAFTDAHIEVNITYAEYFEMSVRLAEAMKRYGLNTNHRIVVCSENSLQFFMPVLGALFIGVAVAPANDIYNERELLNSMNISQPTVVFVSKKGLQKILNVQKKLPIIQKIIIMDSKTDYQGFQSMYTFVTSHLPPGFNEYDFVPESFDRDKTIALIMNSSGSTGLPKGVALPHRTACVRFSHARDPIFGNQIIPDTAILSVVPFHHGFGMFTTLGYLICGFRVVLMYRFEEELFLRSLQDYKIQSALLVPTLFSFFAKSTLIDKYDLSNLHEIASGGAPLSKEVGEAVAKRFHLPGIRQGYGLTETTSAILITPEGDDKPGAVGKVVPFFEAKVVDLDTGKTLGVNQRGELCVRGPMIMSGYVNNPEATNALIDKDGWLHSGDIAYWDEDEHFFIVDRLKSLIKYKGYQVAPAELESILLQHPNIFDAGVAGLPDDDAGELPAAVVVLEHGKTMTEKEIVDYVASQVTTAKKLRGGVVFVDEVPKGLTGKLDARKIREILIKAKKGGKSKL
Sequence of Intestinal-type alkaline phosphatase (Homo sapiens, UniProt P09923) (P09923 whole entry): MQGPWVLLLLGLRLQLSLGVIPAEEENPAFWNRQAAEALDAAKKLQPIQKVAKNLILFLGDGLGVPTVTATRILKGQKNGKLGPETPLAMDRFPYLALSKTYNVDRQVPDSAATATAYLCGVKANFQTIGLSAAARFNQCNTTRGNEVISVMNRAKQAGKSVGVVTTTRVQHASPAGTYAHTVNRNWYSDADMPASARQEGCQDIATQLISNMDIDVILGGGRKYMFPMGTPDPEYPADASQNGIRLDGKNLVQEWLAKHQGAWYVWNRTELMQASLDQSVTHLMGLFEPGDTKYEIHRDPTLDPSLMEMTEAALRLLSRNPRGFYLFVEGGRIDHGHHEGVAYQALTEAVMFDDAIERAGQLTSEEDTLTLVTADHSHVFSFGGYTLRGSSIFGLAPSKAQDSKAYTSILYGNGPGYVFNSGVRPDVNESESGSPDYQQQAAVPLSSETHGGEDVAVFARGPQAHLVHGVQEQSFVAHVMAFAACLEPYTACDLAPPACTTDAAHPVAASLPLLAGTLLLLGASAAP

With `Cc1cc(C)c2c(N)c(C(=O)Nc3ncc(C)s3)sc2n1` the EC50 (HT-1080) was > 50 µM (not active), the AC50 [1] was 1.09 µM (active) and the AC50 [2] was 36.7 µM (active). The EC50 [3] was < 0.2 µM (active) and the AC50 (Paired box protein Pax-8) was 2.92 µM (active).
For `CCOc1cc(CNCCO)cc(Br)c1OCc1ccccc1Cl`, the CC50 [4] was 11.5 µM (active), the AC50 (Cytochrome P450 2C9) was 28.2 µM (inconclusive) and the IC50 (cells) was 18.4 µM (active). For the same compound, the CC50 [5] was 14.1 µM (active), the EC50 [6] was 9.8 µM (active) and the EC50 [7] was 9.13 µM (active). For the same compound, the IC50 [8] was 1.56 µM (active), the CC50 [9] was 19.7 µM (active) and the CC50 (Vero) was 13.8 µM (active). For the same compound, the IC50 [10] was 1.43 µM (active).
In the case of `Nc1c(Cl)ncnc1NCc1cccnc1`, the AC50 [11] is reported as 5.63 µM (active).
In the case of `N=c1c2c(-c3ccccc3)c(-c3ccccc3)n(Cc3ccco3)c2ncn1Cc1ccco1`, the EC50 [12] is reported as 13.5 µM (active), the EC50 [6] is reported as 1.16 µM (active) and the EC50 [7] is reported as 0.891 µM (active). For the same compound, the EC50 [13] was 7.73 µM (active), the IC50 [8] was 2.49 µM (active) and the EC50 [14] was 11.9 µM (active). The AC50 [15] was 6.15 µM (active), the EC50 [16] was 0.68 µM (active) and the IC50 [10] was 1.72 µM (active). For the same compound, the EC50 (Protein RecA) was 8.76 µM (active).
With `CC1=NN(c2ccc(C)cc2C)C(=O)C1C(c1ccccc1)C1C(=O)N(c2ccc(C)cc2C)N=C1C` (centres undefined) the IC50 (Genome polyprotein) was 48.8 µM (active), the AC50 [15] was 0.523 µM (active) and the AC50 [11] was 16.3 µM (active). For the same compound, the EC50 (Protein RecA) was 0.431 µM (active).
For `O=C(CCNS(=O)(=O)c1ccc2[nH]c(=O)oc2c1)Nc1ccccc1`, the IC50 [17] was 26.9 µM (active), the IC50 [18] was 2.4 µM (active) and the IC50 [19] was 17.8 µM (active).
With `Cn1c(/N=C/c2cc(Cl)ccc2O)nc2ccccc21` the AC50 [11] was 10.4 µM (active).
